{"source": "PubChem BioAssay AID1963847", "about": "(Molecular Pharmacology Branch, DTP, NCI, 2024);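 also: spheroids exposed to compounds for one week before readout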;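 as to viability, T/C: luminescence used as stand-in measure of viable cells; 100% = DMSO vehicle control viability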", "tested_on": "415267-285-R-J2-PDC complex spheroid viability", "test": "Anticancer human tumor 415267-285-R-J2-PDC patient-derived breast carcinoma cell line growth inhibition [POLQ]", "settings": "for IC50: curve of first compound; for viability, T/C: stronger effect = lower value", "summary_of_the_method": "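PDC + HUVEC + MSC complex spheroids; POLQ inhibitors ± partner drugs; top conc. at/near clinical Cmax, else 10 microM (SN-38 1 microM), half-log dilutions; 37 degrees C, 5% CO2.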", "key": {"[1]": {"settings": "second compound 0.0316 µM, first compound 0.00316 µM"}, "[2]": {"settings": "second compound 0.0316 µM, first compound 0.01 µM"}, "[3]": {"settings": "second compound 0.0316 µM, first compound 0.0316 µM"}, "[4]": {"settings": "second compound 0.0316 µM, first compound 0.1 µM"}, "[5]": {"settings": "second compound 0.1 µM, first compound 0.00316 µM"}, "[6]": {"settings": "second compound 0.1 µM, first compound 0.01 µM"}, "[7]": {"settings": "second compound 0.1 µM, first compound 0.0316 µM"}, "[8]": {"settings": "second compound 0.1 µM, first compound 0.1 µM"}, "[9]": {"settings": "second compound 0.316 µM, first compound 0.00316 µM"}, "[10]": {"settings": "second compound 0.316 µM, first compound 0.01 µM"}, "[11]": {"settings": "second compound 0.316 µM, first compound 0.0316 µM"}, "[12]": {"settings": "second compound 0.316 µM, first compound 0.1 µM"}, "[13]": {"settings": "second compound 1 µM, first compound 0.00316 µM"}, "[14]": {"settings": "second compound 1 µM, first compound 0.01 µM"}, "[15]": {"settings": "second compound 1 µM, first compound 0.0316 µM"}, "[16]": {"settings": "second compound 1 µM, first compound 0.1 µM"}, "[17]": {"settings": "second compound 3.16 µM, first compound 0.00316 µM"}, "[18]": {"settings": "second compound 3.16 µM, first compound 0.01 µM"}, "[19]": {"settings": "second compound 3.16 µM, first compound 0.0316 µM"}, "[20]": {"settings": "second compound 3.16 µM, first compound 0.1 µM"}, "[21]": {"settings": "second compound 10 µM, first compound 0.00316 µM"}, "[22]": {"settings": "second compound 10 µM, first compound 0.01 µM"}, "[23]": {"settings": "second compound 10 µM, first compound 0.0316 µM"}, "[24]": {"settings": "second compound 10 µM, first compound 0.1 µM"}}}
{"smiles": "COc1cccc(OCCCN)c1-c1cc(Nc2cnc(C#N)cn2)n[nH]1", "note": "+ Cc1cccc(N(C)C(=O)C2C(O)CCN2c2nc(C)cc(C(F)(F)F)c2C#N)c1", "values": [{"measurement": "IC50", "setting": "second compound 0.0316 µM", "result": 7.34, "unit": "nM"}, {"measurement": "IC50", "setting": "second compound 0.1 µM", "result": 6.81, "unit": "nM"}, {"measurement": "IC50", "setting": "second compound 0.316 µM", "result": 6.37, "unit": "nM"}, {"measurement": "IC50", "setting": "second compound 1 µM", "result": 5.94, "unit": "nM"}, {"measurement": "IC50", "setting": "second compound 3.16 µM", "result": 5.9, "unit": "nM"}, {"measurement": "IC50", "setting": "second compound 10 µM", "result": 5.77, "unit": "nM"}, {"measurement": "viability, T/C", "setting": "[1]", "result": 116, "unit": "%"}, {"measurement": "viability, T/C", "setting": "[2]", "result": 25.7, "unit": "%"}, {"measurement": "viability, T/C", "setting": "[3]", "result": 6.57, "unit": "%"}, {"measurement": "viability, T/C", "setting": "[4]", "result": 5.98, "unit": "%"}, {"measurement": "viability, T/C", "setting": "second compound 0.0316 µM, first compound 0.316 µM", "result": 5.5, "unit": "%"}, {"measurement": "viability, T/C", "setting": "second compound 0.0316 µM, first compound 1 µM", "result": 4.04, "unit": "%"}, {"measurement": "viability, T/C", "setting": "[5]", "result": 106, "unit": "%"}, {"measurement": "viability, T/C", "setting": "[6]", "result": 22.1, "unit": "%"}, {"measurement": "viability, T/C", "setting": "[7]", "result": 5.33, "unit": "%"}, {"measurement": "viability, T/C", "setting": "[8]", "result": 6.85, "unit": "%"}, {"measurement": "viability, T/C", "setting": "second compound 0.1 µM, first compound 0.316 µM", "result": 7.24, "unit": "%"}, {"measurement": "viability, T/C", "setting": "second compound 0.1 µM, first compound 1 µM", "result": 4.47, "unit": "%"}, {"measurement": "viability, T/C", "setting": "[9]", "result": 107, "unit": "%"}, {"measurement": "viability, T/C", "setting": "[10]", "result": 13, "unit": "%"}, {"measurement": "viability, T/C", "setting": "[11]", "result": 5.56, "unit": "%"}, {"measurement": "viability, T/C", "setting": "[12]", "result": 4.64, "unit": "%"}, {"measurement": "viability, T/C", "setting": "second compound 0.316 µM, first compound 0.316 µM", "result": 4.82, "unit": "%"}, {"measurement": "viability, T/C", "setting": "second compound 0.316 µM, first compound 1 µM", "result": 4.6, "unit": "%"}, {"measurement": "viability, T/C", "setting": "[13]", "result": 99.2, "unit": "%"}, {"measurement": "viability, T/C", "setting": "[14]", "result": 9.45, "unit": "%"}, {"measurement": "viability, T/C", "setting": "[15]", "result": 5.53, "unit": "%"}, {"measurement": "viability, T/C", "setting": "[16]", "result": 5.41, "unit": "%"}, {"measurement": "viability, T/C", "setting": "second compound 1 µM, first compound 0.316 µM", "result": 6.23, "unit": "%"}, {"measurement": "viability, T/C", "setting": "second compound 1 µM, first compound 1 µM", "result": 4.72, "unit": "%"}, {"measurement": "viability, T/C", "setting": "[17]", "result": 97.3, "unit": "%"}, {"measurement": "viability, T/C", "setting": "[18]", "result": 10.1, "unit": "%"}, {"measurement": "viability, T/C", "setting": "[19]", "result": 7.08, "unit": "%"}, {"measurement": "viability, T/C", "setting": "[20]", "result": 5.58, "unit": "%"}, {"measurement": "viability, T/C", "setting": "second compound 3.16 µM, first compound 0.316 µM", "result": 5.55, "unit": "%"}, {"measurement": "viability, T/C", "setting": "second compound 3.16 µM, first compound 1 µM", "result": 4.93, "unit": "%"}, {"measurement": "viability, T/C", "setting": "[21]", "result": 94.3, "unit": "%"}, {"measurement": "viability, T/C", "setting": "[22]", "result": 9.4, "unit": "%"}, {"measurement": "viability, T/C", "setting": "[23]", "result": 6.2, "unit": "%"}, {"measurement": "viability, T/C", "setting": "[24]", "result": 10.2, "unit": "%"}, {"measurement": "viability, T/C", "setting": "second compound 10 µM, first compound 0.316 µM", "result": 5.74, "unit": "%"}, {"measurement": "viability, T/C", "setting": "second compound 10 µM, first compound 1 µM", "result": 5.13, "unit": "%"}]}
{"smiles": "Cn1ncnc1[C@H]1c2n[nH]c(=O)c3cc(F)cc(c23)N[C@@H]1c1ccc(F)cc1", "note": "+ Cc1cccc(N(C)C(=O)C2C(O)CCN2c2nc(C)cc(C(F)(F)F)c2C#N)c1", "values": [{"measurement": "IC50", "setting": "second compound 0.0316 µM", "result": "> 100", "unit": "nM"}, {"measurement": "IC50", "setting": "second compound 0.1 µM", "result": "> 100", "unit": "nM"}, {"measurement": "IC50", "setting": "second compound 0.316 µM", "result": "> 100", "unit": "nM"}, {"measurement": "IC50", "setting": "second compound 1 µM", "result": "> 100", "unit": "nM"}, {"measurement": "IC50", "setting": "second compound 3.16 µM", "result": "> 100", "unit": "nM"}, {"measurement": "IC50", "setting": "second compound 10 µM", "result": "> 100", "unit": "nM"}, {"measurement": "viability, T/C", "setting": "second compound 0.0316 µM, first compound 0.000316 µM", "result": 92.9, "unit": "%"}, {"measurement": "viability, T/C", "setting": "second compound 0.0316 µM, first compound 0.001 µM", "result": 103, "unit": "%"}, {"measurement": "viability, T/C", "setting": "[1]", "result": 106, "unit": "%"}, {"measurement": "viability, T/C", "setting": "[2]", "result": 96.3, "unit": "%"}, {"measurement": "viability, T/C", "setting": "[3]", "result": 104, "unit": "%"}, {"measurement": "viability, T/C", "setting": "[4]", "result": 96.5, "unit": "%"}, {"measurement": "viability, T/C", "setting": "second compound 0.1 µM, first compound 0.000316 µM", "result": 90.8, "unit": "%"}, {"measurement": "viability, T/C", "setting": "second compound 0.1 µM, first compound 0.001 µM", "result": 93.9, "unit": "%"}, {"measurement": "viability, T/C", "setting": "[5]", "result": 114, "unit": "%"}, {"measurement": "viability, T/C", "setting": "[6]", "result": 109, "unit": "%"}, {"measurement": "viability, T/C", "setting": "[7]", "result": 99.9, "unit": "%"}, {"measurement": "viability, T/C", "setting": "[8]", "result": 97.9, "unit": "%"}, {"measurement": "viability, T/C", "setting": "second compound 0.316 µM, first compound 0.000316 µM", "result": 97.1, "unit": "%"}, {"measurement": "viability, T/C", "setting": "second compound 0.316 µM, first compound 0.001 µM", "result": 90.4, "unit": "%"}, {"measurement": "viability, T/C", "setting": "[9]", "result": 95.7, "unit": "%"}, {"measurement": "viability, T/C", "setting": "[10]", "result": 96.8, "unit": "%"}, {"measurement": "viability, T/C", "setting": "[11]", "result": 95.3, "unit": "%"}, {"measurement": "viability, T/C", "setting": "[12]", "result": 87.2, "unit": "%"}, {"measurement": "viability, T/C", "setting": "second compound 1 µM, first compound 0.000316 µM", "result": 103, "unit": "%"}, {"measurement": "viability, T/C", "setting": "second compound 1 µM, first compound 0.001 µM", "result": 95.6, "unit": "%"}, {"measurement": "viability, T/C", "setting": "[13]", "result": 93.9, "unit": "%"}, {"measurement": "viability, T/C", "setting": "[14]", "result": 101, "unit": "%"}, {"measurement": "viability, T/C", "setting": "[15]", "result": 98.3, "unit": "%"}, {"measurement": "viability, T/C", "setting": "[16]", "result": 101, "unit": "%"}, {"measurement": "viability, T/C", "setting": "second compound 3.16 µM, first compound 0.000316 µM", "result": 92.9, "unit": "%"}, {"measurement": "viability, T/C", "setting": "second compound 3.16 µM, first compound 0.001 µM", "result": 97.1, "unit": "%"}, {"measurement": "viability, T/C", "setting": "[17]", "result": 103, "unit": "%"}, {"measurement": "viability, T/C", "setting": "[18]", "result": 103, "unit": "%"}, {"measurement": "viability, T/C", "setting": "[19]", "result": 99.8, "unit": "%"}, {"measurement": "viability, T/C", "setting": "[20]", "result": 87.7, "unit": "%"}, {"measurement": "viability, T/C", "setting": "second compound 10 µM, first compound 0.000316 µM", "result": 93.3, "unit": "%"}, {"measurement": "viability, T/C", "setting": "second compound 10 µM, first compound 0.001 µM", "result": 97.9, "unit": "%"}, {"measurement": "viability, T/C", "setting": "[21]", "result": 110, "unit": "%"}, {"measurement": "viability, T/C", "setting": "[22]", "result": 93, "unit": "%"}, {"measurement": "viability, T/C", "setting": "[23]", "result": 91, "unit": "%"}, {"measurement": "viability, T/C", "setting": "[24]", "result": 90.5, "unit": "%"}]}
